Source: patent US4690945A, “Process for the preparation of 5'-substituted 2-(3'-thienyl)propionic acids” (Laboratorios Madaus Cerafarm, S.A., priority 1981, dated 1987)
“Also recorded” adds a separate entry of the source.

What was measured:
[1] = tested on: carrageenin abscess on rats' backs; experiment: carrageenin abscess test on rats' backs (Δ abscess), anti-inflammatory action; assay type: in vivo; parameters: key to Anti-inflammatory action, Δ abscess: +++: Intense action; ++: Medium action; +: Minimal action; ±: Doubtful action; -: Negative action; --: Not tested; details: rat back carrageenin abscess, weighed 24 hours after administration; for Anti-inflammatory action, Δ abscess: class symbol
Protocol: (§1) The pharmacological tests were performed on rats and mice, using the carrageenin edema procedure on rats' legs and backs by the test for anti-inflammatory action and the acetic acid contorsion and hot plate tests on mice for the purpose of testing analgesic action.
(§2) The anti-inflammatory action of these compounds was also examined by the carrageenin abscess test on rats' backs, the abscess being weighed 24 hours after administration of the product.
(§3) The results obtained in both tests are expressed as a percentage of inhibition of the edema or abscess, and were better than 30% in comparison with a control group.

[2] = tested on: contorsions (stretching) induced by intraperitoneal dilute acetic acid; experiment: acetic acid contorsion test on mice, analgesic action; assay type: in vivo; parameters: key to Analgesic action, Acetic acid: +++: Intense action; ++: Medium action; +: Minimal action; ±: Doubtful action; -: Negative action; --: Not tested; details: for ED50: Mus musculus, ip, 0.5 h; for ED50 / Analgesic action, Acetic acid: mice, contorsions during 30 minutes after i.p. acetic acid; for analgesic action (in words): acetic acid and hot plate tests; for Analgesic action, Acetic acid: class symbol
Protocol: The pharmacological tests were performed on rats and mice, using the carrageenin edema procedure on rats' legs and backs by the test for anti-inflammatory action and the acetic acid contorsion and hot plate tests on mice for the purpose of testing analgesic action. For the examination of analgesic action, the acetic acid and hot plate tests were used. […] In the acetic acid test, the number of contorsions (stretching) is determined, which are produced for 30 minutes following intraperitoneal administration of dilute acetic acid. Analgesic action is also tested by the hot plate test in which the pain stimulus is thermal, the time being measured in seconds which the animal takes to respond to the stimulus by licking its feet.

[3] = tested on: rat leg edema induced by carrageenin; experiment: carrageenin edema procedure on rats' legs (Δ volume), anti-inflammatory action; assay type: in vivo; parameters: key to Anti-inflammatory action, Δ volume: +++: Intense action; ++: Medium action; +: Minimal action; ±: Doubtful action; -: Negative action; --: Not tested; details: per os, 3 hours; for Anti-inflammatory action, Δ volume: class symbol; for ED50: po
Protocol: as §1
(§4) In the anti-inflammatory action test, the test was performed on rat leg edema induced by carrageenin, administering the compounds per os and measuring the volume of the edema 3 hours later by plethysmography.
as §3

[4] = overall pharmacological (anti-inflammatory and analgesic) action, tests on rats and mice; assay type: in vivo; details: for pharmacological action (in words): analgesic and anti-inflammatory; for anti-inflammatory activity (in words): in mammals
Protocol: as §1, §4, §2
(§5) For the examination of analgesic action, the acetic acid and hot plate tests were used.
(§6) In the acetic acid test, the number of contorsions (stretching) is determined, which are produced for 30 minutes following intraperitoneal administration of dilute acetic acid. Analgesic action is also tested by the hot plate test in which the pain stimulus is thermal, the time being measured in seconds which the animal takes to respond to the stimulus by licking its feet.

[5] = acute toxicity (DL50 / LD50); details: mouse, in vivo
Source text: Most of the compounds described in these examples have been tested pharmacologically and toxicologically (DL50) according to the methods indicated on pages 5 to 7, and the results are summarized in the appended table.

[6] = tested on: thermal pain stimulus (hot plate); experiment: hot plate test on mice, analgesic action; assay type: in vivo; parameters: key: +++: Intense action; ++: Medium action; +: Minimal action; ±: Doubtful action; -: Negative action; --: Not tested; details: class symbol
Protocol: as §1, §5, §6

**Q.** Which ED50 [1] does the source give for `CC(C(=O)O)c1csc(C(=O)c2ccc(Cl)cc2)c1` (stereo not shown) [LMC-II, 2-(5'-(4"-chloro)benzoyl-3'-thienyl)propionic acid] here?
**A.** The ED50 was 23.5 mg/kg.

**Q.** And the “Anti-inflammatory action, Δ abscess” value [1]?
**A.** The value was “+++”.

**Q.** What about the ED50 [2] of the same molecule?
**A.** Its ED50 is 69.6 mg/kg.

**Q.** And the “analgesic action (in words)” value [2]?
**A.** The value was “have an analgesic action”.

**Q.** And the “Analgesic action, Acetic acid” value [2]?
**A.** Its value is “+++”.

**Q.** And the “Anti-inflammatory action, Δ volume” value [3]?
**A.** Its value is “+++”.

**Q.** What about the ED50 [3] of the same molecule?
**A.** The ED50 was 17.3 mg/kg.

**Q.** And the “pharmacological action (in words)” value [4]?
**A.** The value was “notable pharmacological action, though it is inferior to that of compound I; also recorded: most active compounds”.

**Q.** And the “anti-inflammatory activity (in words)” value ([4]; listed as II)?
**A.** The value was “anti-inflammatory activity in mammals”.

**Q.** And the LD50 [5]?
**A.** The LD50 was ~1200 mg/kg.

**Q.** For `CC(C)C(=O)c1cc(C(C)C(=O)O)cs1` (stereo not shown) [LMC-V, 2-(5'-isobutyryl-3'-thienyl)propionic acid], which “Anti-inflammatory action, Δ abscess” value [1] is on record?
**A.** The value was “+”.

**Q.** And the “Anti-inflammatory action, Δ volume” value [3]?
**A.** Its value is “++”.

**Q.** And the “Analgesic action, Plate” value [6]?
**A.** Its value is “+”.

**Q.** What about the LD50 [5] of the same molecule?
**A.** The LD50 was ~1500 mg/kg.

**Q.** For `CC(C(=O)O)c1csc(C(=O)c2ccccc2)c1` (stereo not shown) [LMC-I, 2-(5'-benzoyl-3'-thienyl)propionic acid], which ED50 [1] is on record?
**A.** Its ED50 is 12.5 mg/kg.

**Q.** What about the “Anti-inflammatory action, Δ abscess” value [1] of the same molecule?
**A.** Its value is “+++”.

**Q.** And the ED50 [2]?
**A.** The ED50 was 50 mg/kg.

**Q.** And the “analgesic action (in words)” value [2]?
**A.** Its value is “have an analgesic action”.

**Q.** And the “Analgesic action, Acetic acid” value [2]?
**A.** The value was “+++”.

**Q.** What about the “Anti-inflammatory action, Δ volume” value [3] of the same molecule?
**A.** Its value is “+++”.

**Q.** What about the ED50 [3] of the same molecule?
**A.** Its ED50 is 7.3 mg/kg.

**Q.** What about the “pharmacological action (in words)” value [4] of the same molecule?
**A.** Its value is “notable analgesic and anti-inflammatory action; also recorded: most active compounds”.

**Q.** What about the “anti-inflammatory activity (in words)” value ([4]; listed as I) of the same molecule?
**A.** The value was “anti-inflammatory activity in mammals”.

**Q.** And the LD50 [5]?
**A.** Its LD50 is ~400 mg/kg.

**Q.** Which “Anti-inflammatory action, Δ volume” value [3] does the source give for `CC(C(=O)O)c1csc(Cc2ccccc2)c1` (stereo not shown) [LMC-VII, 2-(5'-benzyl-3'-thienyl)propionic acid] here?
**A.** The value was “+”.

**Q.** What about the LD50 [5] of the same molecule?
**A.** Its LD50 is ~1500 mg/kg.

**Q.** Which “Anti-inflammatory action, Δ abscess” value [1] does the source give for `CC(C(=O)O)c1csc(C(=O)c2ccc(Cl)cc2Cl)c1` (stereo not shown) [LMC-III, 2-(5'-(2",4"-dichloro)benzoyl-3'-thienyl)propionic acid] here?
**A.** The value was “+”.

**Q.** What about the “Analgesic action, Acetic acid” value [2] of the same molecule?
**A.** The value was “+”.

**Q.** What about the “Anti-inflammatory action, Δ volume” value [3] of the same molecule?
**A.** The value was “±”.

**Q.** What about the “Analgesic action, Plate” value [6] of the same molecule?
**A.** Its value is “+”.

**Q.** And the LD50 [5]?
**A.** Its LD50 is ~1000 mg/kg.

**Q.** Which “anti-inflammatory activity (in words)” value [4] does the source give for `CC(C(=O)O)c1csc(C(=O)c2ccccc2)c1` (stereo not shown) [A] here?
**A.** The value was “potent anti-inflammatory activity”.

**Q.** For `Cc1ccc(C(=O)c2cc(C(C)C(=O)O)cs2)cc1` (stereo not shown) [LMC-IV], which “Anti-inflammatory action, Δ abscess” value [1] is on record?
**A.** Its value is “++”.

**Q.** And the “Analgesic action, Acetic acid” value [2]?
**A.** Its value is “++”.

**Q.** And the “Anti-inflammatory action, Δ volume” value [3]?
**A.** The value was “+++”.

**Q.** What about the “Analgesic action, Plate” value [6] of the same molecule?
**A.** The value was “++”.

**Q.** What about the “pharmacological action (in words)” value [4] of the same molecule?
**A.** The value was “best representative of this action”.

**Q.** What about the LD50 [5] of the same molecule?
**A.** The LD50 was ~1200 mg/kg.

**Q.** With `CC(C(=O)O)c1csc(C(=O)c2ccc(Cl)cc2)c1` (stereo not shown) [B] as the molecule, how does the “anti-inflammatory activity (in words)” value [4] read?
**A.** Its value is “potent anti-inflammatory activity”.

**Q.** Which “Anti-inflammatory action, Δ abscess” value [1] does the source give for `CC(C)Cc1cc(C(C)C(=O)O)cs1` (stereo not shown) [LMC-VI] here?
**A.** The value was “+”.

**Q.** What about the “Anti-inflammatory action, Δ volume” value [3] of the same molecule?
**A.** The value was “+”.

**Q.** What about the “Analgesic action, Plate” value [6] of the same molecule?
**A.** Its value is “+”.

**Q.** And the LD50 [5]?
**A.** Its LD50 is > 1000 mg/kg.
